Reference: article PMC7450941, “Establishing a sensitive fluorescence-based quantification method for cyclic nucleotides” (BMC Biotechnology, 2020)

Target: T1, Epac1-camps-His6 (Homo sapiens, UniProt O95398)
T1 construct: made in house; host or cells: E. coli BL21(DE3)-CodonPlus-RIL / BL21(DE3)-pLysS, pET11a
T1 sequence (O95398 199-357 limits assumed): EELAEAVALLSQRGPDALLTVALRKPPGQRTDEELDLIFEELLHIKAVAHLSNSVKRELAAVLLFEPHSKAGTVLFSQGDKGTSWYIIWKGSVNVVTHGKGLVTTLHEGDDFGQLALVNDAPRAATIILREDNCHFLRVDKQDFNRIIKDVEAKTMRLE
Assay: cell-free FRET assay with purified Epac1-camps-His6 in 96 multi-well plates (EYFP/ECFP ratio R/R0)
Assay type: biochemical
Settings: 96 MWP, plate reader
Method: To assess the functionality of the purified Epac1-camps-His6 protein, the protein was diluted to 0.7 μM and 90 μl of this solution was added to each well of a 96 multi well plate (MWP). Fluorescence emission in each well was measured in a plate reader. Excitation was at 430 nm and emission was recorded at 475 nm (ECFP) and 530 nm (EYFP). […] The final volume in each well was 100 μl, and final concentrations of cyclic nucleotides ranged from 10^− 9 - 10^− 4 M. Incubation of the sensor protein with its ligands was for 30 min. at room temperature. […] Normalized data were plotted against cyclic nucleotide concentrations and EC50 values were calculated. […] Mean values with standard deviations were obtained from four-fold determinations for each cyclic nucleotide.
Purified Epac1-camps-His6 protein was diluted to a concentration of 0.7 μM in IS buffer and 90 μl of the sample was added to each well of a 96 multi well plate. Excitation was at 430 nm and emission was recorded at 475 nm (ECFP) and 530 nm (EYFP). […] The final volume was 100 μl and final concentrations of cyclic nucleotides ranged from 10^− 9 - 10^− 4 M. The EYFP/ECFP ratio (R) for each well was calculated and normalized to the ratio of the basal fluorescence in the absence of cyclic nucleotides (R0). […] EC50 values were calculated with a four-parameter nonlinear regression using GraphPad Prism v5.04 […]

EC50: 7.8 µM
SMILES: Nc1nc2c(ncn2[C@@H]2O[C@@H]3COP(=O)(O)O[C@H]3[C@H]2O)c(=O)[nH]1 [cGMP, cyclic guanosine 3′,5′-monophosphate]
